For 6 molecules, mutagenic call results are on record in PubChem BioAssay AID1259407 (Chemical Carcinogenesis Research Information System (CCRIS), 2018).

In this data set the test system is CCRIS mutagenicity, Ames/micronucleus/aberration tests. Put plainly: CCRIS mutagenicity studies.
[1] abbreviates: Test System: AMES SALMONELLA TYPHIMURIUM, Strain/Indicator: TA100, Metabolic Activation: NONE, Method: STANDARD PLATE.

Molecules are shown by their SMILES. The source made the active and inactive calls. How the calls were made is not given here.

With `CCCCOC(=O)c1ccccc1C(=O)OCc1ccccc1`, the mutagenic call is, setting by setting: (End Point: IN VITRO CHROMOSOMAL ABERRATIONS, Test System: CHINESE HAMSTER OVARY CELLS, Metabolic Activation: NONE) “inactive; negative”; (End Point: IN VITRO CHROMOSOMAL ABERRATIONS, Test System: CHINESE HAMSTER OVARY CELLS, Metabolic Activation: RAT, LIVER, S-9, AROCLOR 1254) “inactive; negative”; (Test System: AMES SALMONELLA TYPHIMURIUM, Strain/Indicator: TA98, Metabolic Activation: HAMSTER, LIVER, S-9, AROCLOR 1254 (10%), Method: PREINCUBATION) “inactive; negative”; (Test System: AMES SALMONELLA TYPHIMURIUM, Strain/Indicator: TA98, Metabolic Activation: NONE, Method: PREINCUBATION) “inactive; negative”; (Test System: AMES SALMONELLA TYPHIMURIUM, Strain/Indicator: TA98, Metabolic Activation: RAT, LIVER, S-9, AROCLOR 1254 (10%), Method: PREINCUBATION) “inactive; negative”; (Test System: AMES SALMONELLA TYPHIMURIUM, Strain/Indicator: TA100, Metabolic Activation: HAMSTER, LIVER, S-9, AROCLOR 1254 (10%), Method: PREINCUBATION) “inactive; negative”. The mutagenic call is “inactive; negative” (Test System: AMES SALMONELLA TYPHIMURIUM, Strain/Indicator: TA100, Metabolic Activation: NONE, Method: PREINCUBATION); “inactive; negative” (Test System: AMES SALMONELLA TYPHIMURIUM, Strain/Indicator: TA100, Metabolic Activation: RAT, LIVER, S-9, AROCLOR 1254 (10%), Method: PREINCUBATION); “inactive; negative” (Test System: AMES SALMONELLA TYPHIMURIUM, Strain/Indicator: TA1535, Metabolic Activation: HAMSTER, LIVER, S-9, AROCLOR 1254 (10%), Method: PREINCUBATION); “inactive; negative” (Test System: AMES SALMONELLA TYPHIMURIUM, Strain/Indicator: TA1535, Metabolic Activation: NONE, Method: PREINCUBATION); “inactive; negative” (Test System: AMES SALMONELLA TYPHIMURIUM, Strain/Indicator: TA1535, Metabolic Activation: RAT, LIVER, S-9, AROCLOR 1254 (10%), Method: PREINCUBATION); “inactive; negative” (Test System: AMES SALMONELLA TYPHIMURIUM, Strain/Indicator: TA1537, Metabolic Activation: HAMSTER, LIVER, S-9, AROCLOR 1254 (10%), Method: PREINCUBATION). Moreover, the mutagenic call by setting is: (Test System: AMES SALMONELLA TYPHIMURIUM, Strain/Indicator: TA1537, Metabolic Activation: NONE, Method: PREINCUBATION) “inactive; negative”; (Test System: AMES SALMONELLA TYPHIMURIUM, Strain/Indicator: TA1537, Metabolic Activation: RAT, LIVER, S-9, AROCLOR 1254 (10%), Method: PREINCUBATION) “inactive; negative”; (Test System: MOUSE LYMPHOMA, Strain/Indicator: L5178Y (TK+/TK-), Metabolic Activation: NONE, Method: SUSPENSION/PLATE) “inactive; negative”; (Test System: MOUSE LYMPHOMA, Strain/Indicator: L5178Y (TK+/TK-), Metabolic Activation: RAT LIVER S-9, Method: SUSPENSION/PLATE) “active; positive”; (Test System: MOUSE LYMPHOMA, Strain/Indicator: L5178Y (TK+/TK-), Metabolic Activation: RAT, LIVER, S-9, AROCLOR 1254, Method: SUSPENSION/PLATE) “inactive; negative”.
Turning to `CC(C)C(=O)Nc1snc2cc(Cl)ccc12`, the mutagenic call by setting is: under setting [1], “inactive; negative”; (Test System: AMES SALMONELLA TYPHIMURIUM, Strain/Indicator: TA100, Metabolic Activation: S-9, Method: STANDARD PLATE) “inactive; negative”.
On to `OC[C@@H](O)[C@@H](O)CO`, for which the mutagenic call was “inactive; negative” (Test System: AMES SALMONELLA TYPHIMURIUM, Strain/Indicator: TA98, Metabolic Activation: NONE, Method: STANDARD PLATE); “inactive; negative” (Test System: AMES SALMONELLA TYPHIMURIUM, Strain/Indicator: TA98, Metabolic Activation: RAT, LIVER, S-9, Method: STANDARD PLATE); “inactive; negative” under setting [1]; “inactive; negative” (Test System: AMES SALMONELLA TYPHIMURIUM, Strain/Indicator: TA100, Metabolic Activation: RAT, LIVER, S-9, Method: STANDARD PLATE); “inactive; negative” (Test System: AMES SALMONELLA TYPHIMURIUM, Strain/Indicator: TA1535, Metabolic Activation: NONE, Method: STANDARD PLATE); “inactive; negative” (Test System: AMES SALMONELLA TYPHIMURIUM, Strain/Indicator: TA1535, Metabolic Activation: RAT, LIVER, S-9, Method: STANDARD PLATE). Moreover, the mutagenic call is “inactive; negative” (Test System: AMES SALMONELLA TYPHIMURIUM, Strain/Indicator: TA1537, Metabolic Activation: NONE, Method: STANDARD PLATE); “inactive; negative” (Test System: AMES SALMONELLA TYPHIMURIUM, Strain/Indicator: TA1537, Metabolic Activation: RAT, LIVER, S-9, Method: STANDARD PLATE); “inactive; negative” (Test System: E. COLI, Strain/Indicator: WP2 UVRA, Metabolic Activation: NONE, Method: STANDARD PLATE); “inactive; negative” (Test System: E. COLI, Strain/Indicator: WP2 UVRA, Metabolic Activation: RAT, LIVER, S-9, Method: STANDARD PLATE).
For the molecule `c1cc2c3c(c1)C1NC1c1cccc(c1-3)C1NC21` (centres undefined), the mutagenic call under setting [1] was “active; positive”.
In the case of `Cc1cnc2cc3nc(N)n(C)c3c(C)c2n1`, the mutagenic call is, setting by setting: (Test System: AMES SALMONELLA TYPHIMURIUM, Strain/Indicator: TA98, Metabolic Activation: RAT, LIVER, S-9, PCB, Method: PREINCUBATION) “active; positive”; (Test System: AMES SALMONELLA TYPHIMURIUM, Strain/Indicator: TA98, Metabolic Activation: S-9) “active; positive”; (Test System: AMES SALMONELLA TYPHIMURIUM, Strain/Indicator: TA98, Metabolic Activation: S-9, Method: PREINCUBATION) “active; positive”; (Test System: AMES SALMONELLA TYPHIMURIUM, Strain/Indicator: YG1024, Metabolic Activation: RAT, LIVER, S-9, PCB, Method: PREINCUBATION) “active; positive”; (Test System: AMES SALMONELLA TYPHIMURIUM, Strain/Indicator: YG1024, Metabolic Activation: S-9) “active; positive”.
For the molecule `CC1COc2c(N3CCN(C)CC3)c(F)cc3c(=O)c(C(=O)O)cn1c23` (centres undefined), the mutagenic call is “active; positive” (End Point: AMES SALMONELLA TYPHIMURIUM, Test System: TA98, Metabolic Activation: NONE, Method: STANDARD PLATE); “inactive; negative” (End Point: AMES SALMONELLA TYPHIMURIUM, Test System: TA100, Metabolic Activation: NONE, Method: STANDARD PLATE); “inactive; negative” (Test System: AMES SALMONELLA TYPHIMURIUM, Strain/Indicator: HISG428, Metabolic Activation: NONE, Method: STANDARD PLATE); “active; positive” (Test System: AMES SALMONELLA TYPHIMURIUM, Strain/Indicator: TA92, Metabolic Activation: NONE, Method: STANDARD PLATE); “active; positive” (Test System: AMES SALMONELLA TYPHIMURIUM, Strain/Indicator: TA102, Metabolic Activation: NONE, Method: STANDARD PLATE); “active; positive” (Test System: AMES SALMONELLA TYPHIMURIUM, Strain/Indicator: TA103, Metabolic Activation: NONE, Method: STANDARD PLATE). The mutagenic call is “inactive; negative” (Test System: AMES SALMONELLA TYPHIMURIUM, Strain/Indicator: TA104, Metabolic Activation: NONE, Method: STANDARD PLATE); “active; positive” (Test System: AMES SALMONELLA TYPHIMURIUM, Strain/Indicator: TA2638, Metabolic Activation: NONE, Method: STANDARD PLATE); “inactive; negative” (Test System: AMES SALMONELLA TYPHIMURIUM, Strain/Indicator: TA2661, Metabolic Activation: NONE, Method: STANDARD PLATE); “active; positive” (Test System: AMES SALMONELLA TYPHIMURIUM, Strain/Indicator: TA2662, Metabolic Activation: NONE, Method: STANDARD PLATE); “inactive; negative” (Test System: AMES SALMONELLA TYPHIMURIUM, Strain/Indicator: TA2678, Metabolic Activation: NONE, Method: STANDARD PLATE); “inactive; negative” (Test System: CHINESE HAMSTER V-79, Strain/Indicator: V-79 (HPRT)/6-THIOGUANINE, Metabolic Activation: NONE). Also, the mutagenic call reads like this: (Test System: MOUSE LYMPHOMA, Strain/Indicator: L5178Y (HPRT)/6-THIOGUANINE, Metabolic Activation: NONE, Method: FLUCTUATION TEST) “inactive; negative”; (Test System: MOUSE LYMPHOMA, Strain/Indicator: L5178Y (TK+/TK-), Metabolic Activation: NONE, Method: FLUCTUATION TEST) “inactive; negative”.
